Where a name gives a salt, the structure may show the parent alone.
Tests used:
[1] = pH 7, 25° C.; cited from earlier work
[2] = Bulk crystallization of L-cystine in the presence of additives (mass yield); settings: 2 mg/L additive, 0.7 g/L L-cystine (pH 6.8); no additive 80; approximate error ±8%
Experimental: Alternately, the hexagonal crystals can be obtained by crystallization performed near neutral pH (Sa) The hexagonal form was crystallized from a supersaturated L-cystine solution prepared by adding 70 mg of L-cystine to 100 mL of deionized water (3 mM), and heating under reflux at 100° C. for 20 min with stirring to completely dissolve L-cystine. […] This concentration was used for bulk crystallization studies in the presence of additives so that a measurable amount of bulk crystals could be obtained in a reasonable time. The solution was then allowed to cool slowly with stirring for 75 min. 30 mL aliquots were transferred to separate glass containers, which were then sealed to prevent evaporation and exposure to airborne particulates and stored for 72 hours at room temperature without stirring. […] The crystals retrieved in this manner were used for AFM studies by mounting individual crystals according to the procedure described below.
Various proteins, poly-amino acids, and molecular mimics of L-cystine were examined as additives. The aforementioned procedure for hexagonal platelet crystallization was repeated. Following the 75 min cooling period, prior to any observable crystallization, the additive was added to the supersaturated L-cystine solution to the desired concentration. […] Crystallization without additive was performed in an identical manner for comparison using a control solution from the same batch. The mass yields of L-cystine crystals were obtained by dividing the mass of L-cystine crystals (collected from growth solution by filtration) by the mass of L-cystine added in the growth solution.
Additives chosen for these studies were various proteins, poly-amino acids, and molecular mimics of L-cystine (see Table 1). The above procedure for hexagonal platelet crystallization was repeated until completion of the 75 min cooling period, at which point 29.5 g of solution was transferred to a 100 mL beaker containing 0.5 g of separately prepared additive solution to yield net concentrations of 2 mg/L additive and 0.7 g/L L-cystine. Additive solutions were replaced with deionized water of equivalent volume for control measurements. […]
L-cystine bulk crystallization was investigated in the presence of various polymers, urinary constituents, fish antifreeze proteins (AFPs), and L-cystine derivatives (i.e. structural mimics of L-cystine), which were analyzed as possible growth inhibitors of hexagonal L-cystine. The potency of each additive was assessed by comparing the difference in crystal yield (Table 1), which is equal to the mass of crystals formed in the presence of 2 mg/L additive (isolated with […]) divided by the total mass of L-cystine (700 mg/L).

[3] = Real time in situ AFM step velocity measurements, static conditions; settings: 5 g/L cystamine
Experimental: A Digital Instruments (Santa Barbara, Calif.) Nanoscope IIIa Multimode system was used for topographical and lattice imaging. All measurements were performed in contact mode using Veeco NP_B Si3N4 cantilever tips with a spring constant of 0.12N/m (triangular, 196 μm length, 41 μm width) on a glass cantilever holder, and a liquid cell was created for in situ step velocity measurements. All L-cystine crystals for AFM measurements were prepared by method 1. Crystals were transferred onto an AFM specimen disk coated with partially cured (1 hr) UV-curable optical cement (Type SK-9, EMS Acquisition Corp.) by gently pressing the disk against hexagonal platelets or L-cystine needles isolated by filtration (Whatman Nuclepore membrane, 8 μm). The (0001) face of hexagonal platelets was exposed normal to the disk for AFM analysis with growth occurring along equivalent {1010} faces in the lateral directions, while the sides of L-cystine needles were exposed normal to the disc. The partially cured polymer with adhered crystals was completely cured by additional UV radiation (2 hrs) prior to analysis. Measurements of individual step heights for hexagonal L-cystine crystals were acquired in air (contact mode) at a scan rate of 1.00 Hz and 256 samples per line over a 15×15 μm^2 surface area. Integral and proportional gains were set to the highest possible values without obtaining feedback. Four hexagonal crystals (5 areas per crystal) were analyzed for statistical step height distributions, which were calculated from >10^3 individual steps. Lattice-resolved images of crystal surfaces were acquired in water (contact mode) using a scan rate of 112 Hz over a 12×12 nm^2 area.
Real time in situ step velocity measurements of L-cystine growth were assessed along six structurally-equivalent {1010} faces of the hexagonal structure. A liquid cell was created with the glass cantilever tip holder, and working solutions were injected through a 1-mL syringe. Prior to injecting the growth medium (i.e. supersaturated L-cystine solution), crystals were etched with deionized water in the fluid cell for one hour to remove amorphous deposits or impurities that may be present on the surface. Supersaturated solutions (0.5 g/L) were generated by adding L-cystine to deionized water, boiling the solution on a heating mantle for 20 min to completely dissolve the solute, and allowing the solution to cool for 20 min on the heating mantle before transferring the solution (via syringe) to the AFM fluid cell. […]
The effect of additives on crystal growth rates was investigated. […] For each measurement, growth was first assessed in the absence of additive, then in the presence of additive on the identical area of the crystal surface to analyze relative changes in step velocity. […]

SMILES | solubility of L-cystine in water [1] | Yield (%) = (collected mass by filtration, >11 μm)/(total mass added) × 100% [2] | reduction of step velocity relative to the control [3] | Step velocity ([3]; 0.5 g/L L-cystine, 25° C., static, without additive ~29 nm/min, independent of step height)
N[C@@H](CSSC[C@H](N)C(=O)O)C(=O)O [L-cystine] | 400 to 700 µM |  |  | 
NCCSSCCN [Cystamine, cystamine dihydrochloride, reference compound] |  | 30% | 36% | 18 ± 3 nm/min
